Values joined by “and” are separate entries in the source; they are usually repeats but may differ in a detail not shown here. Equal values may be shown once.
Experiments:
[1] = microbe, parasite or virus in culture; settings: Mycobacterium tuberculosis, 72 h, read-out: pIC50 (converted)
[2] = microbe, parasite or virus in culture; settings: Mycobacterium tuberculosis, 96 h, read-out: pIC50 (converted)
Leishmania donovani = experiment: Leishmania intramacrophage assay; assay type: functional, organism-based; settings: for IC50: Leishmania donovani

| SMILES | IC50 (Leishmania donovani) | other results |
| --- | --- | --- |
| COc1c(F)cc(-c2cccc3c2OC(CN)C3)cc1F (stereo not drawn) | 19.2 µM | IC50 [1]: 36.7 µM; IC50 [2]: 22.9 µM; pIC50 (Leishmania donovani): 4.693 |
| COc1cc(C)c(-c2ccc(F)c3c2OC(CN)C3)cc1C (stereo not drawn) | 7.27 µM | IC50 [1]: > 50.1 µM; IC50 [2]: > 50.1 µM; pIC50 (Leishmania donovani): 4.996 |
| COc1ccc(-c2cccc3c2OC(CN)C3)cc1F (stereo not drawn) | 22.2 µM | IC50 [1]: > 50.1 µM; IC50 [2]: 34.7 µM; pIC50 (Leishmania donovani): 4.618 |
| Cn1cc(CN2CCC(F)(F)C3(CCN(c4cnccn4)C3)C2)cn1 (stereo not drawn) | > 50.1 µM | IC50 [1]: > 50.1 µM; IC50 [2]: > 50.1 µM |
| OCCN1CCC(F)(F)C2(CCN(c3cnccn3)C2)C1 (stereo not drawn) | > 50.1 µM |  |
| Cc1nnc(NCC2(c3ccccc3)CCOCC2)c(C#N)c1C | > 50.1 µM |  |
| Cc1nnc(NCC2(c3ccccc3)CC2)c(C#N)c1C | > 50.1 µM |  |
| Cc1ccccc1C1(CNc2nnc(C)c(C)c2C#N)CCOCC1 | > 50.1 µM |  |
| NC(=O)C1CCN(Cc2csc(-c3ncccn3)n2)CC1 | > 50.1 µM |  |
| CC(C)C[C@H](N)COc1cccc(F)c1Oc1ccccc1 | 12.5 µM | pIC50 (Leishmania donovani): 4.696 |
| Cc1nc(C2(O)CCCNCC2)sc1CCOc1ccccc1Cl.Cl (stereo not drawn) | 12.5 µM | pIC50 (Leishmania donovani): 5.014 |
| Cn1nnc2c(sc3nc(N4CCOCC4)c4c(c32)CCC4)c1=O | > 50.1 µM |  |
| c1cnc(-c2nc(CN3CCCC(Cn4cncn4)C3)cs2)nc1 (stereo not drawn) | > 50.1 µM |  |
| O=C(NCCN1CCOCC1)c1ccc(-n2ccc3ccccc32)s1 | > 50.1 µM |  |
| Cc1ccc(-c2ncc(CNc3cnccc3CO)s2)cc1 | > 50.1 µM |  |
| Cn1nccc1C1CCN(Cc2csc(-c3ncccn3)n2)CC1 | > 50.1 µM |  |
| CCn1cc(-c2cc(C(F)F)nc3sc(C(N)=O)c(N)c23)c(C)n1 | > 50.1 µM |  |
| CCOc1c(CNCCCn2ccnc2)cc(Cl)cc1OC | 27.5 µM |  |
| CN(C)CCNC(=O)c1ccc2ccc(N(C)CC3CC3)n2c1 | > 50.1 µM |  |
| CN(c1ncnc2c1CCC2)C1CCCN(c2cccnn2)C1 (stereo not drawn) | > 50.1 µM |  |
| COCCNc1nc2c(c(NCCc3cccs3)n1)CCNCC2 | 24.2 µM |  |

| SMILES | IC50 (Leishmania donovani) | other results |
| --- | --- | --- |
| CC(C)CC(=O)N1CCN(Cc2csc(-c3ncccn3)n2)CC1 | > 50.1 µM |  |
| CN1CCN(c2ccc3ccc(C(=O)N4CCCCO4)cn23)CC1 | > 50.1 µM |  |
| O=C(CC1CCCCC1)N1CCC(c2ncc3c(n2)CCNC3)CC1 | > 50.1 µM |  |
| CCC(CO)NC(=O)c1ccc2ccc(N(C)CC3CC3)n2c1 (stereo not drawn) | > 50.1 µM |  |
| FC1(F)CCN(Cc2ccncc2)CC12CCN(Cc1ccccn1)C2 (stereo not drawn) | > 50.1 µM |  |
| CCn1nccc1CN(C)C(=O)Cn1cc2c(n1)c(C)nn2CC | > 50.1 µM |  |
| COc1cccc(C(=O)NCc2ccccc2S(=O)(=O)N(C)C)c1 | > 50.1 µM |  |
| COc1ccc(C)cc1CNC(=O)C1=NN(c2ccccc2)C(=O)CN1 | > 50.1 µM |  |
| CCN1CCCC(O)(c2nc(C)c(CCOc3ccccc3F)s2)CC1 (stereo not drawn) | > 50.1 µM |  |
| Cc1nc2c(c(NCC(O)c3ccccc3Cl)n1)CCNCC2 (stereo not drawn) | 44.8 µM | pIC50 (Leishmania donovani): 4.337 |
| N#Cc1ccc(CNC(=O)C2=NN(c3ccccc3)C(=O)CN2)cc1 | > 50.1 µM |  |
| CC(C)COc1cccc(-c2nc3c([nH]2)CCNC3)c1 | 19.2 µM | pIC50 (Leishmania donovani): 4.688 |
| COCCN1CCN(c2ccc3ccc(C(=O)NC4CC4)cn23)CC1 | > 50.1 µM |  |
| Cc1ccc2c(n1)N(Cc1cccnc1)CCN(Cc1cnn(C)c1)C2 | > 50.1 µM |  |
| Clc1ccccc1-c1cc(CNc2ncnc3c2CCNCC3)no1 | 12 µM | pIC50 (Leishmania donovani): 4.821 |
| FC(F)(F)c1nc(NC2CCCC2)c2ccccc2n1 | > 50.1 µM |  |
| Cc1ccc(-c2ncc(CNc3cnccc3CO)s2)o1 | > 50.1 µM |  |
| CCN1CCCC(O)(c2nc(C)c(CCOc3ccc(F)cc3)s2)CC1 (stereo not drawn) | > 50.1 µM |  |
| Cc1ccc(CN2CCC3(CC2)CC(N2CCN(C)CC2)CO3)s1 (stereo not drawn) | > 50.1 µM |  |
| COCCN(Cc1cnn(C)c1)c1nc(C)nc2sccc12 | > 50.1 µM |  |
| Cc1cc(C(F)(F)F)nc(N(C)Cc2c(C)noc2C)n1 | > 50.1 µM |  |

| SMILES | IC50 (Leishmania donovani) | other results |
| --- | --- | --- |
| Cl.NCC(=O)N1CCC(c2ccnc(Nc3cc(C(F)(F)F)ccn3)n2)C1 (stereo not drawn) | 15 µM | pIC50 (Leishmania donovani): 4.798 |
| FC1(F)CCN(Cc2ccncc2)CC12CCN(c1cnccn1)C2 (stereo not drawn) | > 50.1 µM |  |
| CC(=O)NC1CCCN(Cc2csc(-c3ncccn3)n2)C1 (stereo not drawn) | > 50.1 µM |  |
| CCn1cnnc1CNc1nc(C)nc2scc(CC(C)C)c12 | > 50.1 µM |  |
| Cn1cc(CN2CCC(F)(F)C3(CCN(c4ccccn4)C3)C2)cn1 (stereo not drawn) | > 50.1 µM |  |
| Cc1sc2nc(CCN)nc(N3CCC(N4CCCC4)CC3)c2c1C | > 50.1 µM |  |
| CNC(=O)C1CCCN(c2nc(-c3ccco3)nc3c2CCNCC3)C1 (stereo not drawn) | > 50.1 µM |  |
| O=C1NCCCC12CCN(c1nc3c(c(C(F)(F)F)n1)CCCC3)C2 (stereo not drawn) | > 50.1 µM |  |
| CC1CCCN(Cc2ccnc(-c3cccnc3)n2)C1 (stereo not drawn) | > 50.1 µM |  |
| CNC(=O)c1sccc1N(C)S(=O)(=O)c1ccc(Cl)cc1 | > 50.1 µM |  |
| OCCN1CCC(F)(F)C2(CCN(c3cccnc3)C2)C1 (stereo not drawn) | > 50.1 µM |  |
| CC(=O)c1sc2nc3c(c(C(F)(F)F)c2c1N)CN(C(C)=O)CC3 | > 50.1 µM |  |
| Cc1cnc(N2CCc3onc(COc4cccnc4)c3C2)nc1 | > 50.1 µM |  |
| CCCC1CCCN(Cc2csc(-c3cnn(C)c3)n2)CC1 (stereo not drawn) | > 50.1 µM |  |
| COc1ccccc1CN(C)C(=O)CN1CC(n2nc(C)cc2C)C1 | 19.1 µM | pIC50 (Leishmania donovani): 4.762 |
| Cc1ccc(N2CCCC(N(C)c3ncnc4c3CCC4)C2)nn1 (stereo not drawn) | > 50.1 µM |  |
| c1cnc(-c2nc(CN3CCCC(N4CCCC4)C3)cs2)nc1 (stereo not drawn) | > 50.1 µM |  |
| Cn1cc(CN2CCC(F)(F)C3(CCN(c4ncc(F)cn4)C3)C2)cn1 (stereo not drawn) | > 50.1 µM |  |
| CCN1CCCC(O)(c2nc(C)c(CCOc3ccccc3Cl)s2)CC1 (stereo not drawn) | > 50.1 µM |  |
| COc1ccc(C(NCc2cccc(C#N)c2)C(C)C)cc1 (stereo not drawn) | > 50.1 µM |  |
| Cc1ncc(CNc2cnccc2CO)s1 | > 50.1 µM |  |

| SMILES | IC50 (Leishmania donovani) | other results |
| --- | --- | --- |
| N#CC1CCCN(c2nc(-c3ccccc3)nc3c2CCNCC3)C1 (stereo not drawn) | 20.6 µM | pIC50 (Leishmania donovani): 4.667 |
| C=C(C)CN1CCC(C(=O)c2cc(F)ccc2F)CC1 | > 50.1 µM |  |
| NCC1Cc2cc(Cl)cc(-c3cncc(C(=O)N4CCCCC4)n3)c2O1 (stereo not drawn) | 20.8 µM | pIC50 (Leishmania donovani): 4.491 |
| CCC(=O)N1CCC(c2ncc3c(n2)CCNC3)CC1 | > 50.1 µM |  |
| CN1CCN(C2COC3(CCN(CC4CC4)CC3)C2)CC1 (stereo not drawn) | > 50.1 µM |  |
| O=C(O)C1CCCN1c1nc(C2CC2)cc(C(F)(F)F)n1 (stereo not drawn) | > 50.1 µM |  |
| CN(Cc1ccncc1)C1COC2(CCN(Cc3ccsc3)CC2)C1 (stereo not drawn) | > 50.1 µM |  |
| Cc1sc2nc(C(F)(F)F)nc(N3CCN(S(C)(=O)=O)CC3)c2c1C | > 50.1 µM |  |
| Cc1nc(N(Cc2ccncc2)CC2CCCO2)c2ccsc2n1 (stereo not drawn) | > 50.1 µM |  |
| Cc1nc(N2C[C@@H](CN3CCCN(C)CC3)[C@@H](CO)C2)c2ccsc2n1 | > 50.1 µM |  |
| Cc1ccc(CN2Cc3c(cnn3C)C(COCC3CC3)C2)s1 (stereo not drawn) |  | pIC50 (Leishmania donovani): 5.151 and 4.71 |
| CC(=O)N1CCN(c2nc(C(F)(F)F)nc3sc(C)c(C)c23)CC1 | > 50.1 µM |  |
| COc1ccc(C(NCc2ccc(C#N)cc2)C2CC2)cc1 (stereo not drawn) | > 50.1 µM |  |
| c1nc(CCNc2nc(C3CC3)nc3c2CCNCC3)c[nH]1 | > 50.1 µM |  |
| Cc1csc(C2(NCC(O)COc3ccc(F)cc3)CCC2)n1 (stereo not drawn) | > 50.1 µM |  |
| CCCN(CCOC)c1nc(C)nc2sccc12 | > 50.1 µM |  |
| Cc1ccc(N2CCC3(CN(Cc4cccs4)CCC3(F)F)C2)nn1 (stereo not drawn) | > 50.1 µM |  |
| Cc1ccc(N2CCC3(CN(Cc4ccncc4)CCC3(F)F)C2)nn1 (stereo not drawn) | > 50.1 µM |  |
| O=C(O)CN1CCC(F)(F)C2(CCN(c3ccccn3)C2)C1 (stereo not drawn) | > 50.1 µM |  |
| Cc1ccc(CN2CCC(F)(F)C3(CCN(c4cnccn4)C3)C2)o1 (stereo not drawn) | > 50.1 µM |  |

— ChEMBL document CHEMBL3988442, “University of Dundee, Small-Polar-MMV Screening Library” (2021)
